Read-outs that look alike come from different tables or passages of the source.
What was measured:
BCRP = biological target: T1, BCRP (Homo sapiens, UniProt Q9UNQ0); experiment: B to A transport of [3-H]estrone-3-sulfate in LLC-PK1-BCRP cells; format: in vitro ADME; details: for Transport Rate (pmol/min) (mean ± SD): 0.1 μM probe substrate, B to A, n=3
T1 sequence (Q9UNQ0 1-655): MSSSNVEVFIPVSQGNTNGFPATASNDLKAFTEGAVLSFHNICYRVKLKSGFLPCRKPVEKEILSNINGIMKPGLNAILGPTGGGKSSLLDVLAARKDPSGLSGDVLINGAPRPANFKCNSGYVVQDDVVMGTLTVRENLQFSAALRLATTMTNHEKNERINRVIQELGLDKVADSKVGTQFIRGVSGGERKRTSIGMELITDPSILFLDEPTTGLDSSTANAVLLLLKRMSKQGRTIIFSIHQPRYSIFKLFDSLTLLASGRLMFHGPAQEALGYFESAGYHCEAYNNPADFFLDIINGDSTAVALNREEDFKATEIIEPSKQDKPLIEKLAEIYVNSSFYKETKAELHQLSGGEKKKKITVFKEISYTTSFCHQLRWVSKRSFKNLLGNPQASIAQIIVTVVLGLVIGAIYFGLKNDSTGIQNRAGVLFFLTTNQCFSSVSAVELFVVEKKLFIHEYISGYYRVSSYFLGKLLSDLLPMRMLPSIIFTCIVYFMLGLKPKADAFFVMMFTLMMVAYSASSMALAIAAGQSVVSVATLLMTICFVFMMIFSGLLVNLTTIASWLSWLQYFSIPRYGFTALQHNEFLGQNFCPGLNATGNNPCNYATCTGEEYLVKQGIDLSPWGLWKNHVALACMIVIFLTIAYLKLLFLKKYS

OATP1B1 = biological target: T2, OATP1B1 (Homo sapiens, UniProt Q9Y6L6); experiment: Uptake of [3-H]estrone-3-sulfate in HEK293-OATP1B1 cells; format: in vitro ADME; details: for Transport Rate (pmol/min) (mean ± SD): 0.1 μM probe substrate, n=3
T2 construct: host or cells: HEK293 (transient overexpression)
T2 sequence (Q9Y6L6 1-691): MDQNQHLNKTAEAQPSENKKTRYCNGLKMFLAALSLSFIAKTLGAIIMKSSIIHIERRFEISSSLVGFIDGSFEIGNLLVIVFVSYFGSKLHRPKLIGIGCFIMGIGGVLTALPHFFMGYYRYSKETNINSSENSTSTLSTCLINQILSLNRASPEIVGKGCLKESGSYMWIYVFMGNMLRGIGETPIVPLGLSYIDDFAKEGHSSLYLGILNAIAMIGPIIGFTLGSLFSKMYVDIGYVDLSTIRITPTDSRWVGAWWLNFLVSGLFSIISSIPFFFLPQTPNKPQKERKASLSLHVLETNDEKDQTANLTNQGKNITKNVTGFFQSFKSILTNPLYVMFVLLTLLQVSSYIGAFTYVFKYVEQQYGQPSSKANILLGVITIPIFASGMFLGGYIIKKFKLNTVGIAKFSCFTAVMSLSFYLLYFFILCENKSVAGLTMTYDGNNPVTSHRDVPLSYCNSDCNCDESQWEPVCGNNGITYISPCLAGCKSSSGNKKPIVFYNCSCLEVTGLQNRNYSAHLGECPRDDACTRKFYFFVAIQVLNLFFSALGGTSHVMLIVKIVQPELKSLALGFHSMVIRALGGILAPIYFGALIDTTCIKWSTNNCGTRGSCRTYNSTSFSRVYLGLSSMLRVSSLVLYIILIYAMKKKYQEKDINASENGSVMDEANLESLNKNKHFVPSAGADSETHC
Description: To examine the effects of APINACA and typical inhibitors on transporter activity, the uptake of a probe substrate into HEK293 cells overexpressing the respective solute carrier transporters was measured in the presence of APINACA (final concentrations of 0–250 μM) or typical inhibitors for 5 min. The concentrations and probe substrates were selected as follows: 0.1 μM [3-H]MPP^+ (for OCT1 and OCT2), 0.1 μM [3-H]PAH (for OAT1), 0.1 μM [3-H]ES (for OAT3 and OATP1B1), and 0.1 μM [3-H]EG (for OATP1B3).
12.5 (Systat Software, Inc.; San Jose, CA, USA). […] 1.1 (Systat Software, Inc.).

OAT3 = biological target: T3, OAT3 (Homo sapiens, UniProt Q8TCC7); experiment: Uptake of [3-H]estrone-3-sulfate in HEK293-OAT3 cells; format: in vitro ADME; details: for Transport Rate (pmol/min) (mean ± SD): 0.1 μM probe substrate, n=3
T3 construct: host or cells: HEK293 (transient overexpression)
T3 sequence (Q8TCC7 1-542): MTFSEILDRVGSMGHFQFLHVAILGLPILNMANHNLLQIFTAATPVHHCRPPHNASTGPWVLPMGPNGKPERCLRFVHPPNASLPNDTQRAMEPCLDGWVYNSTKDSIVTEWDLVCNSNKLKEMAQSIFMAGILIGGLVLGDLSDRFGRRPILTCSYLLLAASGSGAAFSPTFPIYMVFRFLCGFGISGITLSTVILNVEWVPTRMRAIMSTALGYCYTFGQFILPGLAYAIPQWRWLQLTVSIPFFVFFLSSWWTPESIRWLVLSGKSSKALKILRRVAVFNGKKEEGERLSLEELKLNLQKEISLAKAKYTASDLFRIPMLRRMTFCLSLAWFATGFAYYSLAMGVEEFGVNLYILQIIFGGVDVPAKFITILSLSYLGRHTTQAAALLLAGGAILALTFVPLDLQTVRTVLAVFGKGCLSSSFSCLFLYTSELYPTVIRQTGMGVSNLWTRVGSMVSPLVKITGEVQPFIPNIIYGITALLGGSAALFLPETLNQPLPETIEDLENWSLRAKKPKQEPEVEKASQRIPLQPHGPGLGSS
Description: The concentrations and probe substrates were selected as follows: 0.1 μM [3-H]MPP^+ (for OCT1 and OCT2), 0.1 μM [3-H]PAH (for OAT1), 0.1 μM [3-H]ES (for OAT3 and OATP1B1), and 0.1 μM [3-H]EG (for OATP1B3).
1.1 (Systat Software, Inc.).

UGT1A9 = biological target: T4, UGT1A9 (Homo sapiens, UniProt O60656); details: cited from earlier work
T4 sequence (O60656 26-530): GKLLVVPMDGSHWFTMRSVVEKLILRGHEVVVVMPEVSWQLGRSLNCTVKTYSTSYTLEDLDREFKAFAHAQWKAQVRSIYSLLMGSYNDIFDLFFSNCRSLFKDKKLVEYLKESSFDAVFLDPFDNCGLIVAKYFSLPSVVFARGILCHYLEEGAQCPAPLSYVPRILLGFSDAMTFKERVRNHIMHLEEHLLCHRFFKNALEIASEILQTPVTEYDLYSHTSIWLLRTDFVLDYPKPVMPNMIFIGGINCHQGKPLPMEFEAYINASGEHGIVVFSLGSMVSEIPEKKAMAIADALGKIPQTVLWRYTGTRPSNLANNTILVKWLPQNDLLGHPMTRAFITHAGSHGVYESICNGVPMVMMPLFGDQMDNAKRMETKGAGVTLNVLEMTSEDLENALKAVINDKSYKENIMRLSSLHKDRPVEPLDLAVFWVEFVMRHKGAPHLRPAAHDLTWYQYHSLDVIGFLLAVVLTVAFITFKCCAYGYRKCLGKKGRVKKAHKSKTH

[1] = read-out: Ki for inhibition of UGT1A9 activities, recombinant and human liver microsomal UGT1A9

For C[C@]12CC[C@@H]3c4ccc(OS(=O)(=O)O)cc4CC[C@H]3[C@@H]1CCC2=O [Estrone-3-sulfate], the “Fold Increase of transport rate” value (BCRP; LLC-PK1-BCRP versus Mock) was 4.7, the “Transport Rate (pmol/min) (mean ± SD)” value (BCRP; LLC-PK1 Mock cells (comparison for BCRP)) was 0.44 ± 0.07 pmol/min and the “Transport Rate (pmol/min) (mean ± SD)” value (BCRP; LLC-PK1 cells overexpressing BCRP) was 2.09 ± 0.12 pmol/min. For the same compound, the “Fold Increase of transport rate” value (OATP1B1; HEK293-OATP1B1 versus Mock) was 16.5, the “Transport Rate (pmol/min) (mean ± SD)” value (OATP1B1; HEK293 Mock cells (comparison for OATP1B1)) was 0.76 ± 0.04 pmol/min and the “Transport Rate (pmol/min) (mean ± SD)” value (OATP1B1; HEK293 cells overexpressing OATP1B1) was 12.58 ± 1.57 pmol/min. For the same compound, the “Fold Increase of transport rate” value (OAT3; HEK293-OAT3 versus Mock) was 15.3, the “Transport Rate (pmol/min) (mean ± SD)” value (OAT3; HEK293 Mock cells (comparison for OAT3)) was 0.98 ± 0.20 pmol/min and the “Transport Rate (pmol/min) (mean ± SD)” value (OAT3; HEK293 cells overexpressing OAT3) was 14.96 ± 3.09 pmol/min.

In the case of CCOc1ccc(Cc2cc([C@@H]3O[C@H](CO)[C@@H](O)[C@H](O)[C@H]3O)ccc2Cl)cc1 [dapagliflozin], the Ki (UGT1A9; [1]) is given as 11 to 15 µM.

In the case of CNC(=O)c1cc(Oc2ccc(NC(=O)Nc3ccc(Cl)c(C(F)(F)F)c3)cc2)ccn1 [sorafenib], the Ki (UGT1A9; [1]) is given as 0.7 µM.

In the case of CNC(=O)c1cc(Oc2ccc(NC(=O)Nc3ccc(Cl)c(C(F)(F)F)c3)c(F)c2)ccn1 [regorafenib], the Ki (UGT1A9) is listed as 0.7 µM.

From PMC6720883, “In Vitro Inhibitory Effects of APINACA on Human Major Cytochrome P450, UDP-Glucuronosyltransferase Enzymes, and Drug Transporters” (Molecules, 2019)
